From PMC7660103, “Discovery of Novel 3-Cyanopyridines as Survivin Modulators and Apoptosis Inducers” (Molecules, 2020)

How the values were obtained:
[1] = test system: normal cell line WI-38; test: SRB cytotoxicity assay, normal cell line WI-38; type: cell-based
Protocol: The cytotoxicity of the newly synthesized compounds on the normal cell line WI-38 was also evaluated in order to examine the safety of these compounds.
(§1) Cell viability was estimated using the SRB assay. Aliquots of 100 µL cell suspension (5 × 10^3 cells) in 96-well plates were incubated in complete media for 24 h. Cells were treated with a second aliquot of 100 µL media containing various concentrations of the tested compounds (0.01, 0.1, 1, 10, and 100 μM). After 72 h, cells were fixed by replacing media with 15 µL of 10% TCA and then incubated at 4 °C for 1 h. After that, TCA solution was removed, and the cells were washed 5 times with distilled water. Aliquots of 70 µL SRB solution (0.4% w/v) were added and incubated in a dark place at room temperature for 10 min. Plates were washed 3 times with 1% acetic acid and allowed to air dry overnight. Then, 150 µL of TRIS (10 mM) was added to dissolve protein-bound SRB stain. The absorbance was measured at 540 nm using BMG LABTECH®-FLUO star Omega microplate reader (Ortenberg, Germany).

[2] = test system: hepatocellular carcinoma (HepG2) cells; test: SRB cytotoxicity assay, HepG2; type: cell-based, human; details: for IC50: SRB assay, 72 h, mean ± SD of three experiments; for Selectivity Index HepG2: SI = IC50 on WI-38/IC50 on HepG2
Protocol: (§2) In the present work, sulforhodamine B (SRB) colorimetric assay was done to evaluate the cytotoxic activity of the synthesized 3-cyano pyridines 4a–4e, 5a–5e, and 6a–6e on three human cancer cell lines: prostate carcinoma (PC-3), breast cancer (MDA-MB-231) and hepatocellular carcinoma (HepG2) cell lines. 5-FU was used as a standard drug for comparison.
(§3) Human cancer cells were obtained from Nawah Scientific Inc. (Mokatam, Cairo, Egypt). Cells were maintained in DMEM media containing […] streptomycin, 100 units/mL penicillin, and 10% heat-inactivated fetal bovine serum in humified, 5% (v/v) CO2 atmosphere at 37 °C.
as §1

[3] = test system: breast cancer (MDA-MB-231) cells; test: SRB cytotoxicity assay, MDA-MB-231; type: cell-based, human; details: for IC50: SRB assay, 72 h, mean ± SD of three experiments; for Selectivity Index MDA-MB-231: SI = IC50 on WI-38/IC50 on MDA-MB-231
Protocol: as §2, §3, §1

[4] = test system: prostate carcinoma (PC-3) cells; test: SRB cytotoxicity assay, PC-3; type: cell-based, human; details: for IC50: SRB assay, 72 h, mean ± SD of three experiments; for Selectivity Index PC-3: SI = IC50 on WI-38/IC50 on PC-3
Protocol: as §2, §3, §1

[5] = Homo sapiens, WI-38, mean ± SD of three experiments

| melting point [°C] | Compound | IC50 [1, 5] [µM] | IC50 ([2]; Homo sapiens, HepG2, 72 h) [µM] | Selectivity Index HepG2 [2] | IC50 ([3]; Homo sapiens, MDA-MB-231, 72 h) [µM] | IC50 ([4]; Homo sapiens, PC-3) [µM] | Selectivity Index MDA-MB-231 [3] | Selectivity Index PC-3 [4] | IC50 ([1]; mean ± SD of three experiments) [µM] | IC50 [2] [µM] | IC50 [3] [µM] | IC50 [4] [µM] |
| --- | --- | --- | --- | --- | --- | --- | --- | --- | --- | --- | --- | --- |
| – | N#Cc1c(-c2ccccc2)cc(-c2ccc(OCc3ccc(F)cc3)cc2)nc1N [Compound 4a, 2-Amino-6-(4-((4-fluorobenzyl)oxy)phenyl)-4-phenylnicotinonitrile] | 164 ± 4.5 | 109 ± 0.35 | 1.50 | > 100 | > 100 | – | – | – | – | – | – |
| – | N#Cc1c(-c2ccccc2)cc(-c2ccc(OCc3ccc(F)cc3)cc2)[nH]c1=O [Compound 5a, 6-(4-((4-Fluorobenzyl)oxy)phenyl)-2-oxo-4-phenyl-1,2-dihydropyridine-3-carbonitrile] | 174 ± 4.62 | 30 ± 0.59 | 5.80 | 52 ± 0.4 | 47.5 ± 0.611 | 3.34 | 3.66 | – | – | – | – |
| – | N#Cc1c(-c2ccc(F)cc2)cc(-c2ccc(OCc3ccc(F)cc3)cc2)[nH]c1=O [Compound 5b, 6-(4-((4-Fluorobenzyl)oxy)phenyl)-4-(4-fluorophenyl)-2-oxo-1,2-dihydropyridine-3-carbonitrile] | 132 ± 4.12 | 21.8 ± 0.67 | 6.02 | 26.3 ± 0.73 | 34.2 ± 0.45 | 4.99 | 3.84 | – | – | – | – |
| – | COc1ccc(-c2cc(-c3ccc(OCc4ccc(F)cc4)cc3)nc(N)c2C#N)cc1 [Compound 4e, 2-Amino-6-(4-((4-fluorobenzyl)oxy)phenyl)-4-(4-methoxyphenyl)nicotinonitrile] | 94.7 ± 2.5 | > 100 | – | > 100 | > 100 | – | – | – | – | – | – |
| – | N#Cc1c(-c2ccc(F)cc2)cc(-c2ccc(OCc3ccc(F)cc3)cc2)[nH]c1=S [Compound 6b, 6-(4-((4-Fluorobenzyl)oxy)phenyl)-4-(4-fluorophenyl)-2-thioxo-1,2-dihydropyridine-3-carbonitrile] | 206 ± 4.73 | 41 ± 0.69 | 5.01 | 66.7 ± 0.12 | 60 ± 0.93 | 3.08 | 3.42 | – | – | – | – |
| – | O=c1[nH]cc(F)c(=O)[nH]1 [Compound 5-FU, reference compound] | – | – | – | – | – | – | – | 7.91 ± 1.8 | 7.51 ± 0.11 | 9.35 ± 0.74 | 8.83 ± 0.09 |
| 125 to 127 | N#Cc1c(-c2ccc(F)cc2)cc(-c2ccc(OCc3ccc(F)cc3)cc2)nc1N [Compound 4b, 2-Amino-6-(4-((4-fluorobenzyl)oxy)phenyl)-4-(4-fluorophenyl)nicotinonitrile] | 127 ± 3.6 | > 100 | – | > 100 | > 100 | – | – | – | – | – | – |
| – | N#Cc1c(-c2ccc(Br)cc2)cc(-c2ccc(OCc3ccc(F)cc3)cc2)nc1N [Compound 4d, 2-Amino-4-(4-bromophenyl)-6-(4-((4-fluorobenzyl)oxy)phenyl)nicotinonitrile] | 104 ± 3.16 | 66 ± 0.12 | 1.57 | 30 ± 0.18 | 53 ± 1.12 | 3.46 | 1.96 | – | – | – | – |
| – | N#Cc1c(-c2ccc(Cl)cc2)cc(-c2ccc(OCc3ccc(F)cc3)cc2)nc1N [Compound 4c, 2-Amino-4-(4-chlorophenyl)-6-(4-((4-fluorobenzyl)oxy)phenyl)nicotinonitrile] | 137 ± 4.15 | 62 ± 0.61 | 2.20 | > 100 | > 100 | – | – | – | – | – | – |
| – | N#Cc1c(-c2ccccc2)cc(-c2ccc(OCc3ccc(F)cc3)cc2)[nH]c1=S [Compound 6a, 6-(4-((4-Fluorobenzyl)oxy)phenyl)-4-phenyl-2-thioxo-1,2-dihydropyridine-3-carbonitrile] | 97.4 ± 2.88 | 60 ± 0.1 | 1.62 | 72 ± 0.52 | > 100 | 1.35 | – | – | – | – | – |
| – | COc1ccc(-c2cc(-c3ccc(OCc4ccc(F)cc4)cc3)[nH]c(=S)c2C#N)cc1 [Compound 6e, 6-(4-((4-Fluorobenzyl)oxy)phenyl)-4-(4-methoxyphenyl)-2-thioxo-1,2-dihydropyridine-3-carbonitrile] | 104 ± 3.16 | 40.3 | 2.57 | 23.4 | 35.9 ± 0.92 | 4.43 | 2.89 | – | 40.3 ± 0.99 | 23.4 ± 0.7 | – |
| – | N#Cc1c(-c2ccc(Cl)cc2)cc(-c2ccc(OCc3ccc(F)cc3)cc2)[nH]c1=S [Compound 6c, 4-(4-Chlorophenyl)-6-(4-((4-fluorobenzyl)oxy)phenyl)-2-thioxo-1,2-dihydropyridine-3-carbonitrile] | 89.6 ± 2.75 | 38 ± 0.94 | 2.35 | 42 ± 0.48 | 41.9 ± 0.61 | 2.13 | 2.13 | – | – | – | – |
| – | N#Cc1c(-c2ccc(Br)cc2)cc(-c2ccc(OCc3ccc(F)cc3)cc2)[nH]c1=O [Compound 5d, 4-(4-Bromophenyl)-6-(4-((4-fluorobenzyl)oxy)phenyl)-2-oxo-1,2-dihydropyridine-3-carbonitrile] | 181 ± 4.55 | 27.3 ± 0.74 | 6.63 | 34.8 ± 0.9 | 30.2 ± 0.85 | 5.20 | 5.99 | – | – | – | – |
| – | N#Cc1c(-c2ccc(Br)cc2)cc(-c2ccc(OCc3ccc(F)cc3)cc2)[nH]c1=S [Compound 6d, 4-(4-Bromophenyl)-6-(4-((4-fluorobenzyl)oxy)phenyl)-2-thioxo-1,2-dihydropyridine-3-carbonitrile] | 146 ± 4.55 | 86 ± 0.15 | 1.69 | 71.2 ± 0.56 | 99 ± 0.19 | 2.04 | 1.47 | – | – | – | – |
